Measured values as given in patent US8420595B2, “Methods for treating acute acoustic trauma” (Oklahoma Medical Research Foundation, priority 2006, dated 2013).

System: AAT-induced hearing loss (six hours of 4 kHz octave band noise at 105 dB SPL)
Assay: Acute acoustic trauma (AAT) in chinchillas, hearing levels by auditory brainstem response (ABR)
Format: in vivo, chinchilla
Settings: every tested frequency
Protocol: With reference first to Tables 1-A, 1-B and 1-C, tests were conducted using six chinchillas for each experimental group and the control group. In these tests, the animals were exposed to AAT generated by six hours of noise exposure at 4 kHz octave band noise at 105 dB SPL. Treatments using 4-OHPBN (dosages of 10, 20, 50, and 75 mg/kg), ALCAR (dosages of 0, 20, 30, and 50 mg/kg), and NAC (50, 100, and 200 mg/kg) were given four hours after the AAT by intraperitoneal injection. Hearing levels were determined by auditory brainstem response (ABR) prior to the AAT event (baseline) and at 21 days post injection.
Table 3 depicts the results provided by treatment with a preferred embodiment of the current invention. In this embodiment, the AAT treatment therapy utilized a combination of 4-OHPBN (50 mg/kg) with NAC (100 mg/kg). Treatment consisted of intraperitoneal injection of the combined 4-OHPBN and NAC four hours after the AAT event. In this instance, six chinchillas were used for each test group. The animals were exposed to an AAT event produced by six hours of noise exposure at 4 kHz octave band noise at 105 dB SPL. Hearing levels reported in Table 3 were determined using the ABR method prior to the AAT event and 21 days post AAT. […] As indicated by the * each result was determined to be statistically significant and resulting from the treatment with the combination of 4-OHPBN and NAC. Statistical analysis was carried out using a one way ANOVA procedure and Post hoc test. While the above tests were conducted at the specified dosages, effective results should be realized at dosages between about 5 mg/kg and about 300 mg/kg for NAC and about 5 mg/kg and about 150 mg/kg for 4-OHPBN when NAC and 4-OHPBN are used in combination.
Table 4 depicts the results provided by treatment with another preferred embodiment of the current invention. The test for this embodiment utilized three test groups consisting of six chinchillas each. The chinchillas were exposed to an AAT event generated by a 105 dB narrow-band noise centered at 4 kHz for 6 hours. In this embodiment, the AAT treatment therapy utilized a combination of 4-OHPBN (20 mg/kg) with NAC (50 mg/kg) and ALCAR (20 mg/kg). Treatment consisted of intraperitoneal injection of the combined 4-OHPBN, NAC and ALCAR beginning four hours after noise exposure with injections repeated twice daily for the next two days. The control group was injected with carrier solution. Hearing levels reported in Table 4 were determined using the ABR method prior to the AAT event, immediately after the AAT event and 21 days after the AAT event.
Mean ABR threshold shifts were obtained and statistically analyzed using a two-way ANOVA procedure.

| Compound | p (two way ANOVA and Post hoc test) vs control, ABR hearing level (ALCAR 30 mg/kg i.p. four hours after AAT) | p (two way ANOVA and Post hoc test) vs control, ABR hearing level (ALCAR 50 mg/kg i.p. four hours after AAT) | p (two way ANOVA and Post hoc test) vs control, ABR hearing level (NAC 100 mg/kg i.p. four hours after AAT) | p (two way ANOVA and Post hoc test) vs control, ABR hearing level (NAC 200 mg/kg i.p. four hours after AAT) |
| --- | --- | --- | --- | --- |
| CC(=O)O[C@H](CC(=O)[O-])C[N+](C)(C)C [ALCAR, Acetyl-L-Carnitine] | < 0.05 | < 0.05 |  |  |
| CC(=O)N[C@@H](CS)C(=O)O [NAC, N-acetylcysteine] |  |  | < 0.05 | < 0.05 |
